“Also recorded” adds a separate entry of the source. Read-outs that look alike come from different tables or passages of the source.
Tests used:
[1] = Degree of fusion with anionic liposome (Example 9); conditions: liposome compound/cholesterol/PEG-Glu2C18, 37°C, 30 minutes
Procedure: In a manner similar to that in Example 2, the degree of fusion of the pH-responsive liposome with respect to the anionic liposome (DOPC/DPPG, 5/1 (molar ratio)) was calculated. The measurement method was as follows. 50 μL of 1 mM anionic liposome and 50 μL of 9 mM (converted to the mixed lipid basis) pH-responsive liposome were added to 1.9 mL of each of acetate buffers with different pHs and allowed to stand at 37° C. 30 minutes later, […] of the mixture was dividedly poured and added to 1.9 mL of HEPES buffer (pH 7.4). The resultant mixture was transferred to a quartz cell and subjected to fluorescence measurement (λex: 460 nm, 530 nm). The measurement was carried out using RF-5300PC manufactured by Shimadzu.

[2] = Concentration of Compound 3 in rat plasma after i.v. liposome (LC/MS/MS); assay type: in vivo, SD rat; conditions: male, Sprague-Dawley, iv, 40 mg/kg; for AUC / Cmax / half-life / concentration at 5 min / concentration at 1 h / concentration at 2 h / concentration at 6 h / concentration at 24 h: rat, plasma; for concentration at 5 min / concentration at 1 h / concentration at 2 h / concentration at 6 h / concentration at 24 h: SD rat, i.v. BSA-encapsulated pH-responsive liposome ([Lipid]=20 mg/mL, 2 ml/kg), read-out: GGLG concentration in plasma
Procedure: (§1) A pH-responsive liposome was prepared from mixed lipid (Compound (3)/cholesterol/PEG-Glu2C18=5/5/0.03 (mol)) using the high-pressure extrusion method. In the preparation, the particle size of the liposome was adjusted to 200 to 250 nm. Further, BSA was encapsulated in the internal aqueous phase. The prepared pH-responsive liposome ([Lipid]=20 mg/mL) was intravenously administered to a SD rat (male, body weight of 300 g or less) via the tail vein in an amount of 2 ml/kg under ether anesthesia. The number of rats used was N=3. Prior to the administration and 5 minutes, 1, 2, 6 and 24 hours after the administration, blood was collected (about 500 μL). The obtained blood was subjected to centrifugation (2,000×g, 20 minutes) to obtain plasma (liposome-suspended plasma), and this was preserved at −80° C. Further, after blood was collected 24 hours after the administration, the liver, spleen, lung and kidney were isolated, the wet weight thereof was measured, and these materials were preserved at −80° C. After that, homogenization was carried out using a saline in an amount 4 times greater than the wet weight of the organs.
(§2) A material in which the procedure is carried out until 100 μL of methanol is added to 10 μL of homogenate solution of plasma and the organs was used as a sample for measurement of specimen.
(§3) To the above-described sample for measurement, a solution to which an internal standard material (1,5-dihexadecyl N-glutamyl-L-glutamate (αGlu-Glu2C16)) was added (900 μL) was added, and the mixture was subjected to vortex stirring. After that, the mixture was allowed to stand at room temperature for at least 10 minutes. After that, the mixture was subjected to vortex stirring again and centrifuged at 4° C. at 10,000×g for 15 minutes. The obtained supernatant was transferred to an LC vial.
As a column, CAPLCELLPAK C18 MG (Shiseido Co., Ltd.) (3 μm, 2.0×50 mm) was used, and the column temperature was set at 40° C. Gradient elution was carried out using 0.1% acetic acid aqueous solution (A)-0.1% methanol acetate (B). The flow rate was 0.25 mL/min. The temperature of the autoinjector was set at 15° C. Regarding a needle washing solution, chloroform/methanol (1:1) was used for a washing pump, and methanol was used for a washing port.
The eluent that was separated by HPLC was subjected to positive ESI ionization and measured in the MRM mode.
An analyte for producing a calibration curve for measurement of plasma was measured, and a calibration curve of 1-300 μg/mL of plasma was prepared with weighting of 1/x^2 and Quadratic. The peak area of the analyte for measurement of plasma/IS peak area was substituted into the obtained formula of the calibration curve to calculate the concentration of Compound 3 in plasma. FIG. 8 is a graph showing the results. In FIG. 8, (-⋄-), (--[…]--) and (--Δ--) show the results of animal 1, animal 2 and animal 3, respectively.

[3] = Concentration of Compound 3 in rat tissue 24 hours after i.v. liposome (LC/MS/MS); assay type: in vivo; conditions: for concentration at 24 h: male, SD, rat, iv, 24 hours after i.v. liposome
Procedure: as §1, §2, §3
An analyte for producing a calibration curve for measurement of tissue was measured, and a calibration curve of 1-100 μg/ml was prepared with weighting of 1/x^2 and Quadratic. The peak area of the analyte for measurement of tissue/IS peak area was substituted into the obtained formula of the calibration curve to calculate the concentration of Compound 3 in tissue (in the calculation, the specific gravity of the tissue homogenate was regarded as 1 g/mL). FIG. 9 is a graph showing the results.

[4] = SD rat plasma, i.v. liposome ([Lipid]=20 mg/mL, 2 ml/kg), animal 1
[5] = SD rat plasma, i.v. liposome ([Lipid]=20 mg/mL, 2 ml/kg), Average
[6] = SD rat plasma, i.v. liposome ([Lipid]=20 mg/mL, 2 ml/kg), animal 2
[7] = SD rat plasma, i.v. liposome ([Lipid]=20 mg/mL, 2 ml/kg), animal 3

Tmax [2, 4]: 4.98 min | AUC [2, 5]: 309 µg·h/mL | Cmax [2, 5]: 132000 ng/mL | half-life ([2]; SD rat plasma, i.v. liposome ([Lipid]=20 mg/mL, 2 ml/kg), Average, read-out: t½ (converted)): 4.84 h | AUC [2, 4]: 266 µg·h/mL | Cmax [2, 4]: 105000 ng/mL | half-life ([2]; SD rat plasma, i.v. liposome ([Lipid]=20 mg/mL, 2 ml/kg), animal 1, read-out: t½ (converted)): 5.03 h | AUC [2, 6]: 364 µg·h/mL | Cmax [2, 6]: 153000 ng/mL | half-life ([2]; SD rat plasma, i.v. liposome ([Lipid]=20 mg/mL, 2 ml/kg), animal 2, read-out: t½ (converted)): 4.31 h | AUC [2, 7]: 297 µg·h/mL | Cmax [2, 7]: 136000 ng/mL | half-life ([2]; SD rat plasma, i.v. liposome ([Lipid]=20 mg/mL, 2 ml/kg), animal 3, read-out: t½ (converted)): 5.18 h | concentration at 5 min ([2]; Average value (N=3)): 132000 ng/mL | concentration at 5 min ([2]; animal 1): 105000 ng/mL | concentration at 5 min ([2]; animal 2): 153000 ng/mL | concentration at 5 min ([2]; animal 3): 136000 ng/mL | concentration at 1 h ([2]; Average value (N=3)): 53600 ng/mL | concentration at 1 h ([2]; animal 1): 44700 ng/mL | concentration at 1 h ([2]; animal 2): 62400 ng/mL | concentration at 1 h ([2]; animal 3): 53500 ng/mL | concentration at 2 h ([2]; Average value (N=3)): 31200 ng/mL | concentration at 2 h ([2]; animal 1): 25800 ng/mL | concentration at 2 h ([2]; animal 2): 39300 ng/mL | concentration at 2 h ([2]; animal 3): 28500 ng/mL | concentration at 6 h ([2]; Average value (N=3)): 8900 ng/mL | concentration at 6 h ([2]; animal 1): 8390 ng/mL | concentration at 6 h ([2]; animal 2): 10200 ng/mL | concentration at 6 h ([2]; animal 3): 8120 ng/mL | concentration at 24 h ([2]; Average value (N=3)): 1130 ng/mL | concentration at 24 h ([2]; animal 1): 1020 ng/mL | concentration at 24 h ([2]; animal 2): 1200 ng/mL | concentration at 24 h ([2]; animal 3): 1170 ng/mL | half-life ([2]; from concentration in rat plasma, i.v. pH-responsive liposome, read-out: half-life of Compound 3 (converted)): 4.8 h | concentration at 24 h ([3]; liver, Liver, Average value): 76800 ng/g | concentration at 24 h ([3]; liver, Liver, animal 1): 110000 ng/g | concentration at 24 h ([3]; liver, Liver, animal 2): 64400 ng/g | concentration at 24 h ([3]; liver, Liver, animal 3): 55600 ng/g | concentration at 24 h ([3]; lung, Lung, Average value): 5600 ng/g | concentration at 24 h ([3]; lung, Lung, animal 1): 5600 ng/g | concentration at 24 h ([3]; lung, Lung, animal 2): 5020 ng/g | concentration at 24 h ([3]; lung, Lung, animal 3): 6170 ng/g | concentration at 24 h ([3]; spleen, Spleen, Average value): 33500 ng/g | concentration at 24 h ([3]; spleen, Spleen, animal 1): 30400 ng/g | concentration at 24 h ([3]; spleen, Spleen, animal 2): 33400 ng/g | concentration at 24 h ([3]; spleen, Spleen, animal 3): 36700 ng/g
SMILES: CCCCCCCCCCCCCCCCOC(=O)CCC(NC(=O)C(CCCCNC(=O)C(N)CCC(=O)O)NC(=O)C(N)CCC(=O)O)C(=O)OCCCCCCCCCCCCCCCC (stereo not shown) [Compound 3]
degree of fusion ([1]; pH 5.5 (maximum)): about 60% | degree of fusion ([1]; pH 7.4): about 15% | distribution of Compound 3 in the organs ([3]; SD rat, 24 hours after the administration of pH-responsive liposome): mainly localized in the liver and spleen; also recorded: Almost no Compound 3 was localized in the kidney and lung
